“Also recorded” adds a separate entry of the source.
How the values were obtained:
CyT49 cells [1] = assay: Suspension aggregate culture, cell counts and aggregate diameters; format: cell-based, human; conditions: for serial passages maintained in suspension with undifferentiated morphology: suspension culture, 50 μM
Method: FIG. 10. Effects of NE and ACh in suspension culture of hES cell. (A) 5×10^6 CyT49 cells were seeded in 5 ml StemPro® hESC SFM containing heregulin, LR3-IGF1, Activin and the indicated neurotransmitters at 50 μM in low-attachment 6-well trays and placed at 100 rpm. Undifferentiated suspension aggregates were imaged on day 4. (B) 24 hours after seeding, two wells from each condition were harvested and counted to determine the number of viable cells. (C) Cell counts of each condition when the cultures were split on day 4. (D) The images in (A) were used to determine aggregate diameters using the ImagePro software measurement tool. Average diameters and standard deviations from 50-100 aggregates from each condition are shown. (E) Passage 1 cell counting data. 5×10^6 CyT49 hES cells from p0 cells in (A) were seeded into the same conditions. The aggregates in the condition containing Y27632 were larger and had to be passaged 3 days after seeding, before the centers of the largest aggregates became necrotic. Conversely, the other conditions could be cultured for 6 days before passaging, resulting in higher cell counts.
(§1) FIG. 11. Suspension hES cell cultured with NE, […] remain undifferentiated. CyT49 cells were grown as suspension aggregates in the presence of NE, […] for 16 passages without differentiating morphologically. After p10, some cells were re-plated to adherent culture and examined by karyotyping and immunofluorescent staining for OCT4 and Tra-1-61. All cultures remained undifferentiated and expressed these pluripotency markers uniformly. (SP) StemPro® SFM HIA, NE (+NE at 50 μM), ACh (+ACh at 50 μM), NE/ACh (+NE/ACh at 50 μM). Karyotype data is shown to the right. […] Cultures containing ACh were aneuploid.
Small molecule ligands that support survival or self-renewal at low cell densities could also be expected to have beneficial effects in other culture formats. Applicants have previously developed a suspension culture system for hES cells that enables serial propagation of cells and effective expansion of cultures. Human ES cells, at least BG02 and CyT49 cells, have been maintained in suspension for greater than 10 passages without differentiation. The basis of the technique is to dissociate cultures to single cells with reagents that preserve high viability, such as Accutase™, TrypLE or cell dispersal buffer, then aggregate defined concentrations of cells in defined medium in rotational culture. These methods are described in more detail in International Application PCT/US2008/082356, entitled STEM CELL AGGREGATE SUSPENSION COMPOSITIONS AND METHODS OF DIFFERENTIATION THEREOF, filed Nov. 4, 2008; and International Application PCT/US2007/062755, entitled COMPOSITIONS AND METHODS FOR CULTURING DI[…], filed Feb. 23, 2007, which are herein incorporated by reference in their entireties. Self-aggregation of hES cells occurs in the absence of added extracellular matrix (ECM) or ECM-like proteins and is presumed to be driven in part by homotypic interaction of E-cadherin. The aggregates that are formed expand over 3-4 days and are kept apart from each other by the shear forces generated by rotational culture. Cells are blocked from differentiating by the self-renewal signaling provided by the defined medium and retain their pluripotent characteristics: marker expression, normal karyotype, and differentiation potential in vitro and in teratomas. […]

CyT49 cells [2] = assay: Karyotyping (G-banding) of replated suspension cultures after 10 passages; format: cell-based, human; conditions: after 10 passages in suspension, G-banded
Method: as §1
To examine these possibilities, these cultures were serially passaged to p1 (FIG. 10E). Because Y27632 treated aggregates were of a larger size, they required passaging after only 3 days, and only generated about 1.2×10^7 cells during that period. In contrast, the cultures containing NE, ACh or NE/ACh were cultured for 6 days and generated greater than 2×10^7 cells per well. Suspension cultures containing NE, ACh or NE/ACh were maintained for 12 serial passages, in parallel with a HAIF control culture, and all conditions maintained an undifferentiated morphology throughout. Suspension aggregates were dissociated to single cells after 10 passages and replated to adherent culture for analyses. […] Replated cultures were also G-banded to determine their karyotype.

Structure (SMILES) | serial passages maintained in suspension with undifferentiated morphology (CyT49 cells [1]) | karyotype (CyT49 cells [2]) | aggregate size on day 4 (CyT49 cells [1]; suspension, StemPro hESC SFM HIA, neurotransmitters 50 μM)
CC(=O)OCC[N+](C)(C)C [ACh, acetylcholine] | 12 serial passages | aneuploid or abnormal; also recorded: aneuploid | 
NCC(O)c1ccc(O)c(O)c1 (racemic) [NE, (±)-Norepinephrine (+)-bitartrate] | 12 serial passages |  | smaller aggregates
